Reference: US20250345287A1, “COMPOSITION COMPRISING A MIXTURE OF AT LEAST ONE OIL AND ONE OR MORE SEMIFLUORINATED ALKANES, A USE OF THE COMPOSITION FOR TREATING A DISEASE AS WELL AS A METHOD OF PRODUCING THE COMPOSITION AND CORRESPONDING KITS” (Fluoron GmbH, priority 2024, published 2025)
Read-outs that look alike come from different tables or passages of the source.

Assay: Drug solubility/uptake in VitreoDens, posterior segment model
Method: Drugs were dissoluted in BSS in clinically relevant concentrations and placed in direct contact with VitreoDens in a ratio of 1:9. 50 μl of the hydrophilic phase were removed from the experiment after 1, 6 and 24 hours and drug concentration was determined using HPLC.
For all the tested small molecule drugs HPLC or HPLC-MS (Agilent 1100 Series) with a reversed-phase C18 column (Chromolith® Performance RP-18e, Merck KGaA Darmstadt, Germany) was performed. Calibration curves and exemplary HPLC runs for each active substance are presented in the Supplementary Materials.
Thus, the solubility of a variety of drugs was tested in VitreoDens in an established posterior segment model (FIGS. 7A and 7B) A >90% fill is mostly thought of as a sufficient fill. Thus, this ratio, given a vitreous cavity volume of 5 ml, was recreated in negatively charged glass vials. First, the drug is injected into the hydrophilic phase at a certain concentration, aliquots of the hydrophilic phase are recovered after certain time points to assess the distribution of the drug in the hydrophilic phase and in VitreoDens (FIG. 7A).

| solubility in VitreoDens | SMILES | solubility in VitreoDens (in-vitro, posterior segment model, FIG. 7C) |
| --- | --- | --- |
|  | O=c1[nH]cc(F)c(=O)[nH]1 [5-Fluoruracil] | excellent solubility |
| excellent solubility | C=CC[C@@H]1/C=C(\C)C[C@H](C)C[C@H](OC)[C@H]2O[C@@](O)(C(=O)C(=O)N3CCCC[C@H]3C(=O)O[C@H](/C(C)=C/[C@@H]3CC[C@@H](O)[C@H](OC)C3)[C@H](C)[C@@H](O)CC1=O)[C@H](C)C[C@@H]2OC [Tacrolimus] |  |
| excellent solubility | C[C@@H](c1ncncc1F)[C@](O)(Cn1cncn1)c1ccc(F)cc1F [voriconazole] |  |
| excellent solubility | CC(=O)[C@]1(O)Cc2c(O)c3c(c(O)c2[C@@H](O[C@H]2C[C@H](N)[C@H](O)[C@H](C)O2)C1)C(=O)c1ccccc1C3=O [Idarubicin] |  |
